Experimental data: patent publication US8518956B2, “1-(1-(2-ethoxyethyl)-3-ethyl-7-(4-methylpyridin-2-ylamino)-1H-pyrazolo[4,3-d]pyrimidin-5-yl) piperidine-4-carboxylic acid and salts thereof” (priority 2005, dated 2013)

Each molecule was assayed against T1, PDE5 enzyme (Homo sapiens, UniProt O76074) (assay: Method 1: Human Platelet PDE5 Enzyme Inhibition Scintillation Proximity Assay). Details: METHOD 1: PDE5 IC50, Table B, WO2004096810 examples.
T1 construct: The PDE5 enzyme isolated from human platelets; from tissue; host or cells: human platelets
Assay type: biochemical
Text: Method 1: Human Platelet PDE5 Enzyme Inhibition Scintillation Proximity Assay
An in vitro assay can be used to evaluate the inhibition of PDE5 enzyme activity by a test compound.
The PDE5 enzyme for use in the assay can be obtained from human platelets by appropriate modification of the method of Thompson, W J et al.; Biochemistry 18(23), 5228-5237, 1979, as described by Ballard S A et al.; J. Urology 159(6), 2164-2171, 1998. The PDE5 enzyme isolated from human platelets can be used to catalyze the hydrolysis of [^3H]cGMP (Amersham Biosciences) to 5′ nucleotide [^3H]GMP. The [^3H]GMP binds to yttrium silicate SPA beads (Amersham Biosciences) and is detected by scintillation counting. More specifically, the effect of the test compound at different concentrations can be evaluated in the assay by contacting the compound with a fixed amount of PDE5 enzyme in the presence of substrate (cGMP or cAMP in a 3:1 ratio unlabelled to [^3H]-labeled). Scintillation counting can be used as described above to determine relative PDE5 enzyme activity. The inhibition of PDE5 enzyme activity is then calculated relative to total PDE5 enzyme activity of uninhibited controls.
PDE5 IC50 Assay: 96-well microtiter plate format
• Buffer A: 20 mM Tris-HCl, 5 mM MgCl2, pH 7.4 • Buffer B: 2 mg/ml BSA in Buffer A (enzyme buffer) • cGMP substrate: Final concentration of 500 nM in assay The amount of ^3H-labeled substrate added depends upon the specific activity of [^3H]cGMP, and the cGMP substrate is diluted with a 10 mM stock of cold cGMP in Buffer A for a final substrate concentration of 500 nM in the assay. • PDE enzyme: Prepared in Buffer B. The dilution factor is determined by enzyme activity. • SPA beads: 20 mg/ml suspension prepared in dH2O.
Stocks of standard and test compounds are prepared at 5 mM in 100% DMSO. The compound is serially diluted in a dilution plate using a 10-point ½ log dilution format. 2 μl of the compound dilution is added in duplicate to the wells of the assay plate. 2 μl of 100% DMSO are added to designated control wells. 25 μl of Buffer A are added to all wells. 25 μl of Buffer B are added to the negative control wells. 25 μl of enzyme are added to the remaining wells. 50 μl of substrate are added to each well. Plates are sealed and incubated for 60 minutes on a plate shaker at 30 C. 50 plof SPA beads are added to stop the reaction. The plates are again sealed and shaken for 15 minutes to allow the beads to bind the GMP product. The beads are allowed to settle for 30 minutes and then read on a NXT TopCount scintillation counter. Data are analyzed with a curve fitting application for plate-based screening. Percent inhibition in this assay is calculated as follows: Inhibition (%)=[(mean maximum−compound value/(mean maximum−mean minimum)]×100.
The IC50 value is determined from sigmoid dose-response curves of enzyme activity versus compound concentration.

| IC50 | Compound |
| --- | --- |
| > 100 nM | CCOCCn1nc(C)c2nc(N3C[C@@H]4C[C@H]3CN4)nc(Nc3cccc(C)n3)c21 [WO2004096810 Example 235] |
| 7580 nM | CCCc1nn(C)c2c(NC3CCC(OC)CC3)nc(N3CCNCC3)nc12 (stereo not drawn) [WO2004096810 Example 127] |
| 396 nM | Cc1ccnc(Nc2nc(N3CCNCC3)nc3c(C)n(CC4CC4)nc23)c1 [WO2004096810 Example 173] |
| 43.2 nM | CCc1nn(CCOC)c2c(Nc3cc(C)ccn3)nc(N3CCC(O)CC3)nc12 [WO2004096810 Example 94] |
| 1550 nM | CCCc1nn(C)c2c(Nc3ncc[nH]3)nc(NC)nc12 [WO2004096810 Example 90] |
| 43.8 nM | CCOCCn1nc(CC)c2nc(N3CC(N)C3)nc(Nc3ccncn3)c21 [WO2004096810 Example 3] |
| 6.57 nM | COCCn1nc(C)c2nc(N3C[C@H](C)NC[C@H]3C)nc(Nc3ccc(C)cn3)c21 [WO2004096810 Example 134] |
| 12.6 nM | CCc1nn(CCOC)c2c(Nc3cc(C)ccn3)nc(N[C@H](C)CO)nc12 [WO2004096810 Example 154] |
| 7.22 nM | CCOCCn1nc(CC)c2nc(N(C)[C@@H]3CCN(C)C3)nc(Nc3ccncn3)c21 [WO2004096810 Example 160] |
| 50.2 nM | CCCc1nn(C)c2c(Nc3ccc(C)cn3)nc(N3CCNCC3)nc12 [WO2004096810 Example 34] |
| 4.7 nM | CCOCCn1nc(C)c2nc(N3CCN[C@H](C)C3)nc(Nc3cc(C)ncn3)c21 [WO2004096810 Example 200] |
| 22.4 nM | CCOCCn1nc(CC)c2nc(N3CCN[C@H](C(C)C)C3)nc(Nc3ccncn3)c21 [WO2004096810 Example 17] |
| 6.24 nM | CCOCCn1nc(C)c2nc(N3CC(N(C)C)C3)nc(Nc3cc(C)ccn3)c21 [WO2004096810 Example 205] |
| 35.4 nM | CCOCCn1nc(C)c2nc(N3CCN[C@H](C)C3)nc(Nc3nccc(C)n3)c21 [WO2004096810 Example 221] |
| 0.13 nM | CCOCCn1nc(COC)c2nc(N(C)CC)nc(Nc3cc(C)ccn3)c21 [WO2004096810 Example 212] |
| 0.29 nM | CCOCCn1nc(C)c2nc(N3CCN[C@H](C)C3)nc(Nc3ccncn3)c21 [WO2004096810 Example 11] |
| 87.9 nM | COCCCn1nc(C)c2nc(NCCO)nc(Nc3cc(C)ccn3)c21 [WO2004096810 Example 96] |
| 0.92 nM | COCCn1nc(C)c2nc(N3C[C@H](C)NC[C@H]3C)nc(Nc3ccncn3)c21 [WO2004096810 Example 135] |
| 4.45 nM | COCCn1nc(C)c2nc(N3C[C@H](C)NC[C@H]3C)nc(Nc3cc(C)ccn3)c21 [WO2004096810 Example 133] |
| > 10000 nM | CCCc1nn(C)c2c(Nc3cc(C)ccn3)nc(N)nc12 [WO2004096810 Example 77] |
| 432 nM | Cc1ccnc(Nc2nc(N3CCNCC3)nc3c(C)n(CCC(C)C)nc23)c1 [WO2004096810 Example 174] |

| IC50 | Compound |
| --- | --- |
| 6.09 nM | CCOCCn1nc(C)c2nc(N3C[C@@H]4C[C@H]3CN4C)nc(Nc3cc(C)ccn3)c21 [WO2004096810 Example 206] |
| 2230 nM | CCCc1nn(C)c2c(N[C@H]3CC[C@H](O)CC3)nc(N3CCNCC3)nc12 [WO2004096810 Example 126] |
| 22 nM | CCc1nn(CCOC)c2c(Nc3ccc(C)cn3)nc(N3CCNCC3)nc12 [WO2004096810 Example 151] |
| 0.56 nM | CCOCCn1nc(C)c2nc(N3CCN[C@H](C)C3)nc(Nc3cccc(OC)n3)c21 [WO2004096810 Example 196] |
| 42.1 nM | CCOCCn1nc(C)c2nc(N3CCN[C@@H](C(C)C)C3)nc(Nc3ccncn3)c21 [WO2004096810 Example 14] |
| 67.2 nM | COCCCn1nc(C)c2nc(N3CC[C@@H](O)C3)nc(Nc3cc(C)ccn3)c21 [WO2004096810 Example 100] |
| 1.61 nM | CCOCCn1nc(CO)c2nc(N3C[C@@H]4C[C@H]3CN4)nc(Nc3cc(C)ccn3)c21 [WO2004096810 Example 229] |
| 1.57 nM | CCOCCn1nc(COC)c2nc(N3CCN[C@H](C)C3)nc(Nc3cccc(C)n3)c21 [WO2004096810 Example 211] |
| 11.5 nM | CCOCCn1nc(C)c2nc(N(C)CC)nc(Nc3ccnc(C)n3)c21 [WO2004096810 Example 218] |
| 1.76 nM | CCOCCn1nc(C)c2nc(N3CCN[C@H](C)C3)nc(Nc3cccc(C)n3)c21 [WO2004096810 Example 197] |
| 0.15 nM | CCOCCn1nc(CC)c2nc(N3C[C@H](C)NC[C@H]3C)nc(Nc3ccncn3)c21 [WO2004096810 Example 141] |
| 0.96 nM | CCOCCn1nc(C)c2nc(N3CCN[C@H](C)C3)nc(Nc3ccc(OC)cn3)c21 [WO2004096810 Example 195] |
| 1.3 nM | CCOCCn1nc(COC)c2nc(N(C)C)nc(Nc3cc(C)ccn3)c21 [WO2004096810 Example 185] |
| 19.5 nM | CCc1nn(CCOC)c2c(Nc3cc(C)ccn3)nc(NCCn3cccn3)nc12 [WO2004096810 Example 153] |
| 0.67 nM | CCOCCn1nc(C)c2nc(N3CC4CCC3CN4)nc(Nc3cc(C)ccn3)c21 (stereo not drawn) [WO2004096810 Example 237] |
| 60.6 nM | COCCCn1nc(C)c2nc(N[C@@H](C)CO)nc(Nc3cc(C)cc(C)n3)c21 [WO2004096810 Example 114] |
| 456 nM | CCCc1nn(C)c2c(Nc3cc(C)ccn3)nc(N3CCN[C@@H](C)C3)nc12 [WO2004096810 Example 39] |
| 0.24 nM | CCOCCn1nc(C)c2nc(N(C)[C@H]3CCN(C)C3)nc(Nc3ccncn3)c21 [WO2004096810 Example 191] |
| 177 nM | CCCc1nn(C)c2c(Nc3cc(C)ccn3)nc(NCCOC)nc12 [WO2004096810 Example 72] |
| 24.1 nM | CCOCCn1nc(C)c2nc(N3CC(NC)C3)nc(Nc3cc(C)ccn3)c21 [WO2004096810 Example 204] |

| Compound | IC50 |
| --- | --- |
| CCOCCn1nc(CC)c2nc(N(C)C3CCN(C)CC3)nc(Nc3ccncn3)c21 [compound 2] | 0.48 nM |
